Tests used:
Test in all cases: KAM-matrix competition in K562 lysate;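 for 0.001 uM KAM: median log10 fold change of treatment over DMSO control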;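 for 0.01 uM KAM: median log10 fold change of treatment over DMSO control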;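 for 0.1 uM KAM: median log10 fold change of treatment over DMSO control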;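 for 1 uM KAM: median log10 fold change of treatment over DMSO control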;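 for 10 uM KAM: median log10 fold change of treatment over DMSO control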
Assay type in all cases: binding
CDK17 = molecular target: T1, CDK17 (Homo sapiens, UniProt Q00537);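 for 0.001 uM KAM: median log10 fold change of treatment over DMSO control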;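 for 0.01 uM KAM: median log10 fold change of treatment over DMSO control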;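 for 0.1 uM KAM: median log10 fold change of treatment over DMSO control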;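 for 1 uM KAM: median log10 fold change of treatment over DMSO control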;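 for 10 uM KAM: median log10 fold change of treatment over DMSO control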
T1 construct: endogenous in cells; host or cells: K562 cell lysate
Experimental: (§1) Supplement 12953_2017_125_MOESM1_ESM.zip/MS_Supp Info.xlsx, sheet "KAM" | column: 10 uM KAM; 1 uM KAM; 0.1 uM KAM; 0.01 uM KAM; 0.001 uM KAM; RB50

CSNK1A1 = molecular target: T2, CSNK1A1 (Homo sapiens, UniProt P48729);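 for 0.001 uM KAM: median log10 fold change of treatment over DMSO control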;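 for 0.01 uM KAM: median log10 fold change of treatment over DMSO control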;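 for 0.1 uM KAM: median log10 fold change of treatment over DMSO control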;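 for 1 uM KAM: median log10 fold change of treatment over DMSO control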;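 for 10 uM KAM: median log10 fold change of treatment over DMSO control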
T2 construct: endogenous in cells; host or cells: K562
Experimental: as §1

CSNK2A2 = molecular target: T3, CSNK2A2 (Homo sapiens, UniProt P19784)
T3 construct: endogenous in cells; host or cells: K562
Experimental: as §1

MAP2K7 = molecular target: T4, MAP2K7 (Homo sapiens, UniProt O14733);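 for 0.001 uM KAM: median log10 fold change of treatment over DMSO control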;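 for 0.01 uM KAM: median log10 fold change of treatment over DMSO control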;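 for 0.1 uM KAM: median log10 fold change of treatment over DMSO control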;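 for 1 uM KAM: median log10 fold change of treatment over DMSO control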;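 for 10 uM KAM: median log10 fold change of treatment over DMSO control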
T4 construct: endogenous in cells; host or cells: K562
T4 sequence (O14733 1-419): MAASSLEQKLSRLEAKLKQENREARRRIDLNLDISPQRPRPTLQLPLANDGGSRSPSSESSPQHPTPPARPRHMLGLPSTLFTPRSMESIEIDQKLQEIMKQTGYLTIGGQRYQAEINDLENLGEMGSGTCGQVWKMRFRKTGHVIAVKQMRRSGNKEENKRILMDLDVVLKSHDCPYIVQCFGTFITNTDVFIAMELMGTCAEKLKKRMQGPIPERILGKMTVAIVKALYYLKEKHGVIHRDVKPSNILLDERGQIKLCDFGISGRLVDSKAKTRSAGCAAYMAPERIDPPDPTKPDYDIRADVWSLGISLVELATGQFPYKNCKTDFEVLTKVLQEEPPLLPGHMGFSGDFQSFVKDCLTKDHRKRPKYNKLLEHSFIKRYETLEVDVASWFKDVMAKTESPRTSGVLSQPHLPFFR
Experimental: as §1

MAP3K1 = molecular target: T5, MAP3K1 (Homo sapiens, UniProt Q13233)
T5 construct: endogenous in cells; host or cells: K562 cell lysate
Experimental: as §1

NEK8 = molecular target: T6, NEK8 (Homo sapiens, UniProt Q86SG6)
T6 construct: endogenous in cells; host or cells: K562
T6 sequence (Q86SG6 1-692): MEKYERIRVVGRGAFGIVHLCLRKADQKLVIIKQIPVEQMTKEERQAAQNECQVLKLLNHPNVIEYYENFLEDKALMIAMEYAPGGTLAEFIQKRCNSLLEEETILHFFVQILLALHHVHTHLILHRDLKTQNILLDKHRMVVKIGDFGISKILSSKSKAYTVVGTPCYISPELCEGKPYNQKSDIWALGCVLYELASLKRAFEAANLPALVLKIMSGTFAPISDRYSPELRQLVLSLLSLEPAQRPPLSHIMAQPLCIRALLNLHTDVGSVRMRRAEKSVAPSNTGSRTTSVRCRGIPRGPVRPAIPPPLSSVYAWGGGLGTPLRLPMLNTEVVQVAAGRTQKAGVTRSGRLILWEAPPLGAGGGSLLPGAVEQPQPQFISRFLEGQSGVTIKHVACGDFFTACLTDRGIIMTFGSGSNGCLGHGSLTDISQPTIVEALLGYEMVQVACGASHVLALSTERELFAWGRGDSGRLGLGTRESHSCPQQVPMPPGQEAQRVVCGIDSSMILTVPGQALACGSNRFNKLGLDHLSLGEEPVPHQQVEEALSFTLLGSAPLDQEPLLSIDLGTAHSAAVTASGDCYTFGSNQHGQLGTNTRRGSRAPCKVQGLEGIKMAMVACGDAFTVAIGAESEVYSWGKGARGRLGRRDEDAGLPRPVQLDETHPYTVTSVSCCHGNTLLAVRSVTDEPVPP
Experimental: as §1

PKD1 = molecular target: T7, PKD1 (Homo sapiens, UniProt P98161);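 for 0.001 uM KAM: median log10 fold change of treatment over DMSO control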;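 for 0.01 uM KAM: median log10 fold change of treatment over DMSO control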;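 for 0.1 uM KAM: median log10 fold change of treatment over DMSO control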;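 for 1 uM KAM: median log10 fold change of treatment over DMSO control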;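 for 10 uM KAM: median log10 fold change of treatment over DMSO control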
T7 construct: endogenous in cells; host or cells: K562
Experimental: as §1

TNIK = molecular target: T8, TNIK (Homo sapiens, UniProt Q9UKE5)
T8 construct: K562 cell pellets were thawed on ice and resuspended in cold Lysis buffer; endogenous in cells; host or cells: K562
Experimental: as §1

VRK1 = molecular target: T9, VRK1 (Homo sapiens, UniProt Q99986);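 for 0.001 uM KAM: median log10 fold change of treatment over DMSO control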;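 for 0.01 uM KAM: median log10 fold change of treatment over DMSO control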;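 for 0.1 uM KAM: median log10 fold change of treatment over DMSO control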;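 for 1 uM KAM: median log10 fold change of treatment over DMSO control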;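 for 10 uM KAM: median log10 fold change of treatment over DMSO control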
T9 construct: endogenous in cells; host or cells: K562
T9 sequence (Q99986 1-396): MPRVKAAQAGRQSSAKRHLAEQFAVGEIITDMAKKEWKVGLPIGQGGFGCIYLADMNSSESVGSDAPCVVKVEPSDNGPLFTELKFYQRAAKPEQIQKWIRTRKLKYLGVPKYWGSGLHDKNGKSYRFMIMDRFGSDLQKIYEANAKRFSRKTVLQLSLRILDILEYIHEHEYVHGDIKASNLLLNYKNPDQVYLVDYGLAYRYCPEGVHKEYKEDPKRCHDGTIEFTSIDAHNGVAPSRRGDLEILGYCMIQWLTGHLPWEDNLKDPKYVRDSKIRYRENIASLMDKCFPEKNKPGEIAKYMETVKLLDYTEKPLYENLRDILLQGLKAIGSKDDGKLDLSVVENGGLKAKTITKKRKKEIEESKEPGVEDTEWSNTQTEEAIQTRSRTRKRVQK
Experimental: as §1

[1] = KAM 0.001-10 uM, read-out: RB50 (the source's name)
[2] = read-out: RB50 (the source's name)

N#CCc1ccc(Nc2nc(NCCCN)cc(Nc3cc(C4CC4)[nH]n3)n2)cc1 [KAM]
IC50 (CDK17; [1]): > 10 µM
0.001 uM KAM (CDK17; relative to 0 uM KAM = 0): -0.02399
0.01 uM KAM (CDK17; relative to 0 uM KAM = 0): -0.01557
0.1 uM KAM (CDK17; relative to 0 uM KAM = 0): -0.06864
1 uM KAM (CDK17; relative to 0 uM KAM = 0): -0.1892
10 uM KAM (CDK17; relative to 0 uM KAM = 0): -0.2802
IC50 (CSNK1A1; [1]): > 10 µM
0.001 uM KAM (CSNK1A1; relative to 0 uM KAM = 0): 0.05671
0.01 uM KAM (CSNK1A1; relative to 0 uM KAM = 0): -0.02341
0.1 uM KAM (CSNK1A1; relative to 0 uM KAM = 0): 0.02518
1 uM KAM (CSNK1A1; relative to 0 uM KAM = 0): 0.03521
10 uM KAM (CSNK1A1; relative to 0 uM KAM = 0): -0.008144
median Log10 fold change (CSNK2A2; 0.001 uM KAM): 0.0115
median Log10 fold change (CSNK2A2; 0.01 uM KAM): -0.003085
median Log10 fold change (CSNK2A2; 0.1 uM KAM): -0.2921
median Log10 fold change (CSNK2A2; 1 uM KAM): -0.5833
median Log10 fold change (CSNK2A2; 10 uM KAM): -0.635
IC50 (CSNK2A2; [2]): 0.15 µM
IC50 (MAP2K7; [1]): > 10 µM
0.001 uM KAM (MAP2K7; relative to 0 uM KAM = 0): 0.00178
0.01 uM KAM (MAP2K7; relative to 0 uM KAM = 0): -0.02319
0.1 uM KAM (MAP2K7; relative to 0 uM KAM = 0): -0.04803
1 uM KAM (MAP2K7; relative to 0 uM KAM = 0): -0.07056
10 uM KAM (MAP2K7; relative to 0 uM KAM = 0): -0.08653
median Log10 fold change (MAP3K1; 0.001 uM KAM): -0.0387
median Log10 fold change (MAP3K1; 0.01 uM KAM): -0.001908
median Log10 fold change (MAP3K1; 0.1 uM KAM): -0.0773
median Log10 fold change (MAP3K1; 1 uM KAM): -0.1722
median Log10 fold change (MAP3K1; 10 uM KAM): -0.3697
IC50 (MAP3K1; [2]): 4.53 µM
median Log10 fold change (NEK8; 0.001 uM KAM): -0.1269
median Log10 fold change (NEK8; 0.01 uM KAM): -0.1123
median Log10 fold change (NEK8; 0.1 uM KAM): -0.2566
median Log10 fold change (NEK8; 1 uM KAM): -0.2815
median Log10 fold change (NEK8; 10 uM KAM): -0.455
IC50 (NEK8; [2]): 0.861 µM
IC50 (PKD1; [1]): > 10 µM
0.001 uM KAM (PKD1; relative to 0 uM KAM = 0): -0.05857
0.01 uM KAM (PKD1; relative to 0 uM KAM = 0): 0.006072
0.1 uM KAM (PKD1; relative to 0 uM KAM = 0): -0.01241
1 uM KAM (PKD1; relative to 0 uM KAM = 0): -0.0439
10 uM KAM (PKD1; relative to 0 uM KAM = 0): 0.04844
median Log10 fold change (TNIK; 0.001 uM KAM): -0.02112
median Log10 fold change (TNIK; 0.01 uM KAM): -0.02269
median Log10 fold change (TNIK; 0.1 uM KAM): -0.2334
median Log10 fold change (TNIK; 1 uM KAM): -0.3546
median Log10 fold change (TNIK; 10 uM KAM): -0.3559
IC50 (TNIK; [2]): 0.646 µM
IC50 (VRK1; [1]): > 10 µM
0.001 uM KAM (VRK1; relative to 0 uM KAM = 0): 0.05319
0.01 uM KAM (VRK1; relative to 0 uM KAM = 0): 0.02372
0.1 uM KAM (VRK1; relative to 0 uM KAM = 0): 0.08305
1 uM KAM (VRK1; relative to 0 uM KAM = 0): 0.1248
10 uM KAM (VRK1; relative to 0 uM KAM = 0): 0.03089

Source: PMC5513037, “Examining the influence of specificity ligands and ATP-competitive ligands on the overall effectiveness of bivalent kinase inhibitors” (Proteome Science, 2017)
